Where “and” joins values, the source holds several entries; their conditions need not be identical. Equal values may be shown once.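 Five compound concentrations were applied to cells in 96-well plates for 48 hours; endpoints were derived by simple linear interpolation of the resulting dose-response curve. At the GI50, growth is halved. TGI denotes the concentration required for complete inhibition of growth.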
Assays:
Assay in all cases: NCI tumour cell line growth inhibition, 48 h
IGROV1 ovarian = tested on: IGROV1 ovarian
SK-MEL-2 melanoma = tested on: SK-MEL-2 melanoma
ACHN renal = tested on: ACHN renal
A549 NSCLC = tested on: A549 NSCLC
HOP-62 NSCLC = tested on: HOP-62 NSCLC
MALME-3M melanoma = tested on: MALME-3M melanoma
SF-539 CNS = tested on: SF-539 CNS
SR leukemia = tested on: SR leukemia
OVCAR-8 ovarian = tested on: OVCAR-8 ovarian
EKVX NSCLC = tested on: EKVX NSCLC

Row | SMILES | TGI (IGROV1 ovarian) | TGI (SK-MEL-2 melanoma) [µM] | TGI (ACHN renal) | TGI (A549 NSCLC) | TGI (HOP-62 NSCLC) | TGI (MALME-3M melanoma) | TGI (SF-539 CNS) | TGI (SR leukemia) [µM] | TGI (OVCAR-8 ovarian) | TGI (EKVX NSCLC) | GI50 (IGROV1 ovarian) [µM] | GI50 (SK-MEL-2 melanoma) [µM] | GI50 (ACHN renal) [µM] | GI50 (A549 NSCLC) | GI50 (MALME-3M melanoma) [µM] | GI50 (SF-539 CNS) [µM] | GI50 (SR leukemia) [µM] | GI50 (OVCAR-8 ovarian) | GI50 (EKVX NSCLC) [µM] | GI50 (HOP-62 NSCLC) [µM]
1 | Cn1c(=O)c(C(c2ccc([N+](=O)[O-])cc2)c2c(O)c3ccccc3n(C)c2=O)cc2ccccc21 (stereo not drawn) | > 100 µM | > 100 | > 100 µM | > 100 µM | 75.2 µM | 73.2 µM | > 100 µM | > 100 | > 100 µM | > 100 µM | – | – | – | – | – | – | – | – | – | –
2 | COc1cc2c3c(n(CCCNC(=O)OCC4c5ccccc5-c5ccccc54)c(=O)c2cc1OC)-c1cc2c(cc1/C3=C\CCNC(=O)OCC1c3ccccc3-c3ccccc31)OCO2 | 4.93 µM | > 21.6 | > 35 µM | > 50 µM | > 24.3 µM | > 50 µM | > 50 µM | 21 | > 50 µM | > 50 µM | 0.915 | > 10.2 | > 11.8 | > 26.6 µM | 45.5 | 35.7 | 3.29 | > 35.3 µM | > 50 | –
3 | COc1cc2c(c(OC)c1OC)-c1ccc(OC)c(=O)cc1[C@@H](NC(=O)c1ccccc1)CC2 | 30 µM and 55.2 µM | – | 30 µM and > 100 µM | 30 µM and > 100 µM | 30 µM and > 100 µM | 30 µM and 80.1 µM | < 0.003 µM and 0.017 µM | > 100 | 30 µM and 13.8 µM | > 100 µM | 0.00587 | < 0.003 | 0.104 | < 0.003 µM | < 0.003 | < 0.003 | – | 0.00935 µM and 0.0138 µM | > 30 | < 0.003
4 | c1ccc2c(c1)ccn2CCc1c[nH]c2ccccc12 | > 10 µM | > 10 | > 10 µM | > 10 µM | > 10 µM | > 10 µM | > 10 µM | > 10 | > 10 µM | > 10 µM | – | – | – | – | – | – | – | – | – | –
5 | Cc1cc(S(=O)(=O)Nc2nnc(-c3ccccc3)c(-c3ccccc3)n2)c(SCC(N)=O)cc1Cl | > 100 µM | 49.2 | > 100 µM | > 100 µM | > 100 µM | > 100 µM | 30.1 µM | 47.6 | 87 µM | > 100 µM | > 100 | 30.5 | > 100 | > 100 µM | 30.2 | 0.671 | 24.1 | 32.5 µM | > 100 | 52.5
6 | C1=CC2SSSC2C1 (stereo not drawn) | > 100 µM | > 100 | > 100 µM | > 100 µM | > 100 µM | > 100 µM | > 100 µM | > 100 | > 100 µM | > 100 µM | – | – | – | – | – | – | – | – | – | –
7 | COC1=CC(=O)c2nc(-c3cccc(C)n3)[nH]c2C1=O | 47 µM | > 100 | 70.3 µM | 39.1 µM | 35.9 µM | 64.3 µM | 36.7 µM | > 100 | 78.2 µM | > 100 µM | 20.5 | 52.4 | 25.1 | 19.1 µM | 20.8 | 18.8 | 30.6 | 24.7 µM | 34.8 | 18.7
8 | Cc1cn(C2CC(N(O)Cc3ccccc3)C(CO[Si](C)(C)C(C)(C)C)O2)c(=O)[nH]c1=O (stereo not drawn) | 44.8 µM and 29.4 µM | 38.3 | 98.1 µM and 31.4 µM | > 100 µM and 31.5 µM | 36.5 µM and 29.9 µM | 31.8 µM | 33.2 µM and 29.5 µM | 89.4 | 84.1 µM and 32 µM | > 100 µM and 33.9 µM | – | – | – | 35.8 µM and 16.7 µM | – | – | – | – | – | –
9 | N#CC(NNC(=O)Cc1ccccc1)c1c(O)ccc2ccccc12 (stereo not drawn) | > 76.8 µM | 26.9 | 20.2 µM | 44.1 µM | 59.2 µM | 30.2 µM | 29 µM | 38.3 | 52.2 µM | 65.6 µM | – | – | – | – | – | – | – | – | – | –
10 | CCOc1ccccc1NC(=O)CC(C(=O)OC)C(=O)C(=O)OC (stereo not drawn) | > 100 µM | > 100 | > 100 µM | > 100 µM | > 100 µM | > 100 µM | > 100 µM | > 100 | > 100 µM | > 100 µM | – | – | – | – | – | – | – | – | – | –
11 | CC(=O)CSCc1ccccn1 | > 100 µM | 71.4 | > 100 µM | > 100 µM | > 100 µM | 9.99 µM | 67.9 µM | 56.1 | > 100 µM | > 100 µM | – | – | – | – | – | – | – | – | – | –

From PubChem BioAssay (NCI)
